Laboratory results from patent US20140371237A1, “p19Arf, HMGA2 and MDM2 For Use in the Diagnosis and Treatment of Aberrant Cell Growth” (University of Bremen, priority 2010, published 2014).

Tested on: leiomyoma explants and matching myometrium
Assay: Nutlin-3 sensitivity of leiomyoma explants compared with matching myometrium (qRT-PCR p21, BAX)
Format: cell-based, human
Source text: As disclosed herein and in [7], leiomyomas show elevated levels of p14^Arf mRNA compared to myometrium resulting from a negative feedback-loop between p53 and MDM2 which in turn results in an activation of MDM2. Furthermore, without intending to be bound by theory, it was hypothesized herein and in [11] that within the p14^Arf-driven pathway a delicate balance between p53 and MDM2 assures the proliferative activity of leiomyomas as well as their genomic integrity. Accordingly, it can be speculated that leiomyomas may be more sensitive against MDM2 inhibition than matching myometrium.
Altogether, tissue samples of 36 patients have been investigated herein; see Table 1 in FIGS. 20A and 20B. The study was approved by the local ethics committee and prior to surgery; informed written consent was obtained from all patients. For gene expression studies samples of 52 UL from 31 patients along with matching myometrium were taken during surgery, immediately frozen in liquid nitrogen, and stored at −80° C. for RNA isolation and qRT-PCR analyses of p14^Arf. For MDM2 inhibition six tissue samples of UL from four patients as well as matching myometrium were taken during surgery and immediately transferred into sterile Hank's solution.
[…] As controls tissue explants were incubated in medium 199 supplemented with 20% FCS without nutlin-3 for 72 h.
About 250 ng of total RNA were reverse transcribed with 200 U/μl of M-MLV reverse transcriptase (Invitrogen, Karlsruhe, Germany), RNase Out, 150 ng random hexamers and 10 mM dNTPs according to the manufacturer's instructions. RNA was denatured at 65° C. for 5 min and subsequently kept on ice for 1 min. After adding the enzyme to the RNA primer mixes, samples were incubated for 10 min at 25° C. to allow annealing of the random hexamers. Reverse transcription was performed at 37° C. for […] followed by inactivation of the reverse transcriptase at 70° C. for 15 min.
Relative quantification of transcription levels was carried out by real-time PCR analyses using the Applied Biosystems 7300 real-time PCR system (Applied Biosystems, Darmstadt, Germany). Commercially available gene expression assays (Applied Biosystems, Darmstadt, Germany) were used for quantification of mRNA of human p14^Arf (Hs00924091), BAX (Hs00180269_m1), CDKN1A (Hs 99999142), and MKI67 (Hs00606991_m1). HPRT served as endogenous control. All qRT-PCR experiments were done in triplicate.

With `COc1ccc(C2=N[C@@H](c3ccc(Cl)cc3)[C@@H](c3ccc(Cl)cc3)N2C(=O)N2CCNC(=O)C2)c(OC(C)C)c1` [nutlin-3] the “BAX expression, sensitivity of leiomyoma explants versus matching myometrium” value (3 μM and 10 μM, 72 h) was “generally higher sensitivity of the leiomyoma explants”, the “p21 expression in fibroids versus matching myometrial tissue” value (3 μM and 10 μM, 72 h, all tissue explants treated) was “exceeded that seen in the matching myometrial tissue” and the “BAX expression, myometrium versus leiomyoma, exceptional cases” value (cases 683 and 687, 10 μM, 72 h) was “the expression in the myometrium exceeded that of the leiomyoma”. The “sensitivity of the myometrium to the MDM2 inhibition versus matching fibroids” value (six days) was “reduced sensitivity”.
